Test results from patent publication US11175289B2, “Application of TRPM8 protein, related peptide fragment and their antibodies” (priority 2016, dated 2021).
Ends that are not written are not given here. * marks the point of attachment. Biotin = O=C1N[C@H]2[C@H](CS[C@H]2CCCCC(=O)*)N1

Tested on: TRPM8 protein and TRPM8 related peptide fragments
Assay: Antibody identification of monoclonal antibodies
Type: binding, human
Settings: monoclonal antibody against the named antigen
Text: Freund's adjuvant is adopted for respectively immunizing the mice.
2. Detection of TRPM8 antibody: utilizing a radioimmunoassay (RIA) method.

Substance | Affinity | Specificity
Biotin-DEVRQWYVNGVNYFTD [T-5] | 10^12 L/mol | High
Biotin-DGTTYDFAHCTFTGNESKPL [T-3] | 10^12 L/mol | High
Biotin-FKNEDNETLAWEGVMKENYL [T-2] | 10^12 L/mol | High
Biotin-LTVIKMEEAGDEIVSNA [T-6] | 10^12 L/mol | High
Biotin-VSRNLGPKIIMLQ [T-4] | 10^12 L/mol | High
CEMDI ELHDV SPITRH (CEMDIELHDVSPITRH; HUMAN) [T-12] | 10^12 L/mol | High
CFTGNE SKPLCV ELDEH NLPRFPE (CFTGNESKPLCVELDEHNLPRFPE; HUMAN) [T-9] | 10^12 L/mol | High
CKEKN MESSV CCFKN EDNET (CKEKNMESSVCCFKNEDNET; HUMAN) [T-7] | 10^12 L/mol | High
CSEEM RHRFR QLDTK LNDLKG (CSEEMRHRFRQLDTKLNDLKG; HUMAN) [T-8] | 10^12 L/mol | High
EMDIELHDVSPITRH (HUMAN) [T-18] | 10^12 L/mol | High
FTGNESKPLCVELDEHNLPRFPE (HUMAN) [T-15] | 10^12 L/mol | High
KEKNMESSVCCFKNEDNET (HUMAN) [T-13] | 10^12 L/mol | High
NRRND TLDST RTLYSS (NRRNDTLDSTRTLYSS; HUMAN) [T-10] | 10^12 L/mol | High
NRRNDTLDSTRTLYSSASRSTDLSYS (HUMAN) [T-16] | 10^12 L/mol | High
SEEMRHRFRQLDTKLNDLKG (HUMAN) [T-14] | 10^12 L/mol | High
VEVED ALTSS AVKEK LVRFC (VEVEDALTSSAVKEKLVRFC; HUMAN) [T-11] | 10^12 L/mol | High
VEVEDALTSSAVKEKLVRF (HUMAN) [T-17] | 10^12 L/mol | High
